Earlier results on one molecule are cited in patent US20070212307A1, “Pharmaceutical Compositions Comprising an Opioid Receptor Antagonist and Methods of Using Same” (priority 2006, published 2007).

For the data set the following is noted: 50 mg oral dose.

Consider `O=C1CC[C@@]2(O)[C@H]3Cc4ccc(O)c5c4[C@@]2(CCN3CC2CC2)[C@H]1O5` [naltrexone], for which the oral bioavailability was 10%-25%.
